PMC11784839, “Monoaminergic neurotransmitters are bimodal effectors of tau aggregation” (Science Advances, 2025)

Target: tau (Homo sapiens, UniProt P10636)
Assay: MCE Phenols Library screening, tau biosensor cell seeding assay (AvZ)
Type: cell-based
Conditions: for Z repl 1 / Z Repl 2: Z score; for Z repl 1 / raw data 1: replicate 1; for Z Repl 2 / raw data 2: replicate 2
[1] = average Z score of the two replicates, tau seeding
[2] = average Z score of the two replicates, MCE Phenols Library screen
[3] = average Z score of two replicates, Phenols Library screen
[4] = average puncta of the two replicates
[5] = average Z score of the two replicates, tau biosensor seeding, MCE Phenols Library screen

Chain of tau (P10636 623-695 limits assumed): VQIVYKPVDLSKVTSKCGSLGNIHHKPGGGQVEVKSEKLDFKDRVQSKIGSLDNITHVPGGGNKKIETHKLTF

SMILES | Z repl 1 | Z Repl 2 | av puncta (average of raw data 1 and 2) | raw data 1 (puncta) | raw data 2 (puncta) | av Z [3] | AvZ (average z score of seeding, SDs from the mean level of seeding) (10 μM phenol in cell cultures, AD brain homogenate preincubated 16 hours, two biological replicates, positive = catalyzes seeding, negative = inhibits) | av Z [1] | av Z [2] | av puncta [4] | raw data 1 (raw puncta) | raw data 2 (raw puncta) | av Z [5]
CC(C)=CCc1c(O)cc2c(c1O)C(=O)C[C@@H](c1ccc(O)cc1)O2 [(2S)-6-Prenylnaringenin] | 0.006 | 0.268 | 21024 | 26415.8 | 15632.3 |  |  | 0.137 |  |  |  |  | 
Oc1cc(O)c2c(c1)O[C@H](c1cc(O)c(O)c(O)c1)[C@@H](O)C2 [(+)-Gallocatechin] | -0.679 | -1.082 | 9700.21 | 18193.2 | 1207.17 |  |  |  | -0.881 |  |  |  | 
O=C(O[C@@H]1Cc2c(O)cc(O)cc2O[C@@H]1c1cc(O)c(O)c(O)c1)c1cc(O)c(O)c(O)c1 [(-)-Epigallocatechin Gallate] | -2.044 |  | 1025.27 | 1812.01 | 238.519 |  |  |  | -1.608 |  |  |  | 
Oc1cc(O)c2c(c1)O[C@H](c1cc(O)c(O)c(O)c1)[C@H](O)C2 [(-)-Epigallocatechin] | -0.424 | -0.047 |  |  |  |  |  |  | -0.236 | 16761.1 | 21261.4 | 12260.9 | 
Oc1cc(O)c2c(c1)O[C@@H](c1cc(O)c(O)c(O)c1)[C@H](O)C2 [(-)-Gallocatechin] | -1.316 | -0.749 | 7661.42 | 10555.6 | 4767.22 |  |  |  | -1.032 |  |  |  | 
COc1ccc2cc1Oc1ccc(cc1)C[C@H]1c3cc(c(OC)cc3CCN1C)Oc1c(O)c(OC)cc3c1[C@@H](C2)N(C)CC3 [(R)-Fangchinoline] | 0.226 | 0.65 | 24385.2 | 29066.8 | 19703.5 |  |  | 0.438 |  |  |  |  | 
CC[C@@]1(O)C(=O)OCc2c1cc1n(c2=O)Cc2cc3cc(O)ccc3nc2-1 [(S)-10-Hydroxycamptothecin] | 1.738 | 1.796 | 39581.6 | 47219.2 | 31944.1 |  |  |  |  |  |  |  | 1.767
CC(C)=CC[C@@H](OC(=O)CC(C)(C)O)C1=CC(=O)c2c(O)ccc(O)c2C1=O [?-Hydroxyisovalerylshikonin] | -0.737 | -0.673 |  | 17504.1 | 5582.9 |  |  |  | -0.705 | 11543.5 |  |  | 
Cc1cc(O)c(C)c2c1O[C@](C)(CCC[C@H](C)CCC[C@H](C)CCCC(C)C)CC2 [?-Tocopherol] | 0.056 | -0.786 |  |  |  |  |  |  | -0.365 | 15701 | 27026 | 4376.13 | 
Cc1c(C)c2c(c(C)c1O)CC[C@@](C)(CCC[C@H](C)CCC[C@H](C)CCCC(C)C)O2 [?-Vitamin E] | -0.172 | -0.481 |  |  |  |  |  |  | -0.326 | 15958 | 24288.2 | 7627.82 | 
CC(=O)O[C@@H](CC=C(C)C)C1=CC(=O)c2c(O)ccc(O)c2C1=O [Acetylalkannin] | -0.759 | -0.292 |  | 17242.7 | 9643.51 |  |  |  | -0.525 | 13443.1 |  |  | 
CC(=O)O[C@H](CC=C(C)C)C1=CC(=O)c2c(O)ccc(O)c2C1=O [Acetylshikonin] | 0.563 | 1.037 | 28473.3 | 33102.4 | 23844.2 |  |  |  |  |  |  |  | 0.8

Second part, led by results:

Z repl 1 | Z Repl 2 | av puncta (average of raw data 1 and 2) | raw data 1 (puncta) | raw data 2 (puncta) | av Z [3] | AvZ (average z score of seeding, SDs from the mean level of seeding) (10 μM phenol in cell cultures, AD brain homogenate preincubated 16 hours, two biological replicates, positive = catalyzes seeding, negative = inhibits) | SMILES | av Z [1] | av Z [2] | av puncta [4] | raw data 1 (raw puncta) | raw data 2 (raw puncta) | av Z [5]
0.313 | 1.018 | 26875.3 | 30111.3 | 23639.2 |  |  | COc1cc(C[C@@H](CO)[C@H](CO)Cc2ccc(O)c(OC)c2)ccc1O [(+)-Secoisolariciresinol] | 0.666 |  |  |  |  | 
0.447 | -0.597 | 19047.3 | 31709.7 | 6384.95 | -0.075 |  | Oc1ccc([C@H]2COc3cc(O)ccc3C2)cc1 [(-)-(S)-Equol] |  |  |  |  |  | 
-0.615 | -1.07 | 10148.5 | 18961.3 | 1335.66 |  |  | O=C(O[C@@H]1Cc2c(O)cc(O)cc2O[C@H]1c1ccc(O)c(O)c1)c1cc(O)c(O)c(O)c1 [(-)-Catechin gallate] |  | -0.843 |  |  |  | 
-0.198 | 0.182 | 19340.4 | 23970.4 | 14710.3 | -0.008 |  | Oc1ccc([C@H]2Oc3cc(O)cc(O)c3C[C@H]2O)cc1 [(-)-Epiafzelechin] |  |  |  |  |  | 
-1.161 | -0.434 | 10272.2 | 12408.5 | 8135.9 |  |  | O=C(O[C@@H]1Cc2c(O)cc(O)cc2O[C@@H]1c1ccc(O)c(O)c1)c1cc(O)c(O)c(O)c1 [(-)-Epicatechin gallate] |  | -0.797 |  |  |  | 
 | -1.187 | 257.55 | 427.718 | 87.382 |  |  | O=C(O[C@@H]1Cc2c(O)cc(O)cc2O[C@H]1c1cc(O)c(O)c(O)c1)c1cc(O)c(O)c(O)c1 [(-)-Gallocatechin gallate] |  |  |  |  |  | 
0.975 | 0.791 | 29633.2 | 38055.6 | 21210.9 |  |  | Oc1ccc2c(c1)OC[C@H]1c3cc4c(cc3O[C@@H]21)OCO4 [(-?)?-Maackiain] |  |  |  |  |  | 0.883
0.224 | -0.662 |  |  |  |  |  | COc1cc(/C=C/C(=O)OCC2OC(OC3(CO)OC(CO)C(O)C3OC(=O)/C=C/c3cc(OC)c(O)c(OC)c3)C(O)C(O)C2O)cc(OC)c1O (stereo not drawn) [(E)-3',6-Disinapoylsucrose] |  | -0.219 | 17367.3 | 29041 | 5693.57 | 
0.336 | -0.209 | 20459.1 | 30381.4 | 10536.7 |  | 0.064 | COC(=O)/C=C/c1ccc(O)cc1 [(E)-Methyl 4-coumarate] |  |  |  |  |  | 
0.881 | 0.516 | 27599.4 | 36919.9 | 18278.8 |  |  | CC(C)=CC[C@H](OC(=O)C=C(C)C)C1=CC(=O)c2c(O)ccc(O)c2C1=O [?,?-Dimethylacrylalkannin] | 0.698 |  |  |  |  | 
1.599 | 0.945 | 34202.6 | 45542.6 | 22862.6 |  |  | OC[C@H]1O[C@@H](Oc2ccc(O)cc2)[C@H](O)[C@@H](O)[C@@H]1O [?-Arbutin] |  |  |  |  |  | 1.272
-0.027 | -0.222 | 18211.5 | 26028.3 | 10394.7 | -0.124 |  | COc1ccc(-c2cc(=O)c3c(O)cc(O)cc3o2)cc1 [Acacetin] |  |  |  |  |  | 
